Patent US20260285888A1, “HETEROCYCLIC COMPOUND AND USE THEREOF” (OTSUKA PHARMACEUTICAL CO., LTD., priority 2023, published 2026)

How the values were obtained:
[1] = Study for confirmation of conversion to brexpiprazole in a buffer (stability of the evaluation compounds); format: physicochemical; settings: in buffer, average of duplicate; for Concentration of brexpiprazole formed: 60-minute reaction sample; for Concentration of evaluation compound decreased: decrease in 60-minute vs 0-minute reaction sample
In short: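 Compounds (final 1 μmol/L, from 100 μmol/L working solutions) incubated in buffer at 37° C. for 0 or 60 min, in duplicate, after 3 min pre-incubation of the reaction solution. Reactions stopped with acetonitrile/isopropanol (4:1) containing internal standards; compound and formed brexpiprazole quantified against 0.01–1 μmol/L calibration samples.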

in vitro = format: cell-based, human; settings: human, differentiated hl-60 cells, 300 μmol/L, about 24 hours, PMA-differentiated HL-60 cells, LDH; no-treatment 0%, cell lysis buffer 100%; read-out: cytotoxicity (%) Evaluation compound results
Method: An HL-60 cell line (human acute promyelocytic leukemia cells) was successively cultured in RPMI 1640 containing 20% fetal bovine serum (FBS) at 37° C. in 95% atmosphere/5% CO2. Before evaluation, the cells were pre-cultured for about 72 hours in the presence of 10 nM phorbol 12-myristate 13-acetate (PMA) to induce macrophage-like differentiation.
Evaluation compounds were dissolved in DMSO to obtain 30 mmol/L solutions (or suspensions). Each DMSO solution was diluted 100-fold with RPMI 1640 containing 2% FBS (final concentration of the compound: 300 μmol/L) to obtain a treatment solution. The culture supernatant of the differentiated HL-60 cells was removed, and each treatment solution was added and cultured for about 24 hours, followed by cytotoxicity evaluation.
The activity of lactate dehydrogenase (LDH) was measured in the treatment solutions exposed to the cells for about 24 hours by using a commercial kit (Cytotoxicity LDH Assay Kit-WST, Dojindo Laboratories) and a plate reader (Tecan Infinite M1000). The obtained measurement values were used to calculate cytotoxicity (%) as comparison values for each evaluation compound-treated group, with the no-treatment group taken as 0% and the cell lysis buffer-treated group taken as 100%. The test was conducted in triplicate in three wells each, and the average values were used as adopted values.

Row | SMILES | Concentration of brexpiprazole formed [1] [nM] | Concentration of evaluation compound decreased [1] [nM] | cytotoxicity at 24 h, 300 µM (in vitro) [%]
1 | COCCn1nc(C(=O)OCOP(=O)([O-])OC[N+]2(CCCCOc3ccc4ccc(=O)[nH]c4c3)CCN(c3cccc4sccc34)CC2)c2ccccc21 [EX 82, (4-(benzo[b]thiophen-4-yl)-1-(4-((2-oxo-1.2-dihydroquinolin-7-yl)oxy)butyl)piperazin-1-ium-1-yl)methyl (((1-(2-methoxyethyl)-1H-indazole-3-carbonyl)oxy)methyl) phosphate] | 0 | 20 | -2
2 | O=C(OCCCOC1CCCCO1)OCOP(=O)([O-])OC[N+]1(CCCCOc2ccc3ccc(=O)[nH]c3c2)CCN(c2cccc3sccc23)CC1 (stereo not drawn) [EX 140, (4-(benzo[b]thiophen-4-yl)-1-(4-((2-oxo-1,2-dihydroquinolin-7-yl)oxy)butyl)piperazin-1-ium-1-yl)methyl ((((3-((tetrahydro-2H-pyran-2-yl)oxy)propoxy)carbonyl)oxy)methyl) phosphate] | 0 | -20 | 9
3 | CC(C)C(=O)OCOP(=O)([O-])OC[N+]1(CCCCOc2ccc3ccc(=O)[nH]c3c2)CCN(c2cccc3sccc23)CC1 [EX 24, (4-(benzo[b]thiophen-4-yl)-1-(4-((2-oxo-1,2-dihydroquinolin-7-yl)oxy)butyl)piperazin-1-ium-1-yl)methyl ((isobutyryloxy)methyl) phosphate] | 0 | -110 | 10
4 | CCC(=O)OCOP(=O)([O-])OC[N+]1(CCCCOc2ccc3ccc(=O)[nH]c3c2)CCN(c2cccc3sccc23)CC1 [EX 120, (4-(benzo[b]thiophen-4-yl)-1-(4-((2-oxo-1,2-dihydroquinolin-7-yl)oxy)butyl)piperazin-1-ium-1-yl)methyl ((propionyloxy)methyl) phosphate] | 0 | 50 | 13
5 | CCCCOCCOCCOC(=O)OCOP(=O)([O-])OC[N+]1(CCCCOc2ccc3ccc(=O)[nH]c3c2)CCN(c2cccc3sccc23)CC1 [EX 135, (4-(benzo[b]thiophen-4-yl)-1-(4-((2-oxo-1.2-dihydroquinolin-7-yl)oxy)butyl)piperazin-1-ium-1-yl)methyl (3-oxo-2,4,7,10-tetraoxatetradecyl) phosphate] | 0 | 70 | -4
6 | CC(C)(C)OC(=O)NC(C)(C)C(=O)OCOP(=O)([O-])OC[N+]1(CCCCOc2ccc3ccc(=O)[nH]c3c2)CCN(c2cccc3sccc23)CC1 [EX 128, (4-(benzo[b]thiophen-4-yl)-1-(4-((2-oxo-1,2-dihydroquinolin-7-yl)oxy)butyl)piperazin-1-ium-1-yl)methyl (((2-(tert-butoxycarbonyl)amino)-2-methylpropanoyl)oxy)methyl) phosphate] | 0 | -30 | 2
7 | O=C(O)CCCC(=O)OCOP(=O)([O-])OC[N+]1(CCCCOc2ccc3ccc(=O)[nH]c3c2)CCN(c2cccc3sccc23)CC1 [EX 70, (4-(benzo[b]thiophen-4-yl)-1-(4-((2-oxo-1.2-dihydroquinolin-7-yl)oxy)butyl)piperazin-1-ium-1-yl)methyl (((4-carboxybutanoyl)oxy)methyl) phosphate] | 0 | 0 | -7
8 | O=C(OCCCCCCOP(=O)([O-])OC[N+]1(CCCCOc2ccc3ccc(=O)[nH]c3c2)CCN(c2cccc3sccc23)CC1)c1ccccc1 [EX 57, (4-(benzo[b]thiophen-4-yl)-1-(4-((2-oxo-1,2-dihydroquinolin-7-yl)oxy)butyl)piperazin-1-ium-1-yl)methyl (6-(benzoyloxy)hexyl) phosphate] | 0 | 90 | 4
9 | CCOC(=O)[C@H](C)OP(=O)([O-])OC[N+]1(CCCCOc2ccc3ccc(=O)[nH]c3c2)CCN(c2cccc3sccc23)CC1 [EX 104, (S)-(4-(benzo[b]thiophen-4-yl)-1-(4-((2-oxo-1,2-dihydroquinolin-7-yl)oxy)butyl)piperazin-1-ium-1-yl)methyl (1-ethoxy-1-oxopropan-2-yl) phosphate] | 0 | 200 | -5
10 | O=c1ccc2ccc(OCCCC[N+]3(COP(=O)([O-])OCC4CC4)CCN(c4cccc5sccc45)CC3)cc2[nH]1 [EX 91, (4-(benzo[b]thiophen-4-yl)-1-(4-((2-oxo-1,2-dihydroquinolin-7-yl)oxy)butyl)piperazin-1-ium-1-yl)methyl (cyclopropylmethyl) phosphate] | 0 | 120 | 17
11 | COCC(COC)OP(=O)([O-])OC[N+]1(CCCCOc2ccc3ccc(=O)[nH]c3c2)CCN(c2cccc3sccc23)CC1 [EX 56, (4-(benzo[b]thiophen-4-yl)-1-(4-((2-oxo-1,2-dihydroquinolin-7-yl)oxy)butyl)piperazin-1-ium-1-yl)methyl (1,3-dimethoxypropan-2-yl) phosphate] | 0 | 40 | -6
12 | COCC1CCC(COP(=O)([O-])OC[N+]2(CCCCOc3ccc4ccc(=O)[nH]c4c3)CCN(c3cccc4sccc34)CC2)CC1 (stereo not drawn) [EX 54, (4-(benzo[b]thiophen-4-yl)-1-(4-((2-oxo-1,2-dihydroquinolin-7-yl)oxy)butyl)piperazin-1-ium-1-yl)methyl ((4-(methoxymethyl)cyclohexyl)methyl) phosphate] | 0 | 140 | -10
13 | O=c1ccc2ccc(OCCCC[N+]3(COP(=O)([O-])OCCCCO)CCN(c4cccc5sccc45)CC3)cc2[nH]1 [EX 10, (4-(benzo[b]thiophen-4-yl)-1-(4-((2-oxo-1,2-dihydroquinolin-7-yl)oxy)butyl)piperazin-1-ium-1-yl)methyl (4-hydroxybutyl) phosphate] | 0 | -20 | -6
14 | CCOC(=O)CC(C)(C)CC(=O)OCOP(=O)([O-])OC[N+]1(CCCCOc2ccc3ccc(=O)[nH]c3c2)CCN(c2cccc3sccc23)CC1 [EX 32, (4-(benzo[b]thiophen-4-yl)-1-(4-((2-oxo-1,2-dihydroquinolin-7-yl)oxy)butyl)piperazin-1-ium-1-yl)methyl (((5-ethoxy-3,3-dimethyl-5-oxopentanoyl)oxy)methyl) phosphate] | 0 | 10 | 5
15 | O=C(OCOP(=O)([O-])OC[N+]1(CCCCOc2ccc3ccc(=O)[nH]c3c2)CCN(c2cccc3sccc23)CC1)OC1CCOCC1 [EX 141, (4-(benzo[b]thiophen-4-yl)-1-(4-((2-oxo-1,2-dihydroquinolin-7-yl)oxy)butyl)piperazin-1-ium-1-yl)methyl (((((tetrahydro-2H-pyran-4-yl)oxy)carbonyl)oxy)methyl) phosphate] | 0 | 20 | 19
16 | CC(=O)OCCCCCCOP(=O)([O-])OC[N+]1(CCCCOc2ccc3ccc(=O)[nH]c3c2)CCN(c2cccc3sccc23)CC1 [EX 101, 6-acetoxyhexyl ((4-(benzo[b]thiophen-4-yl)-1-(4-((2-oxo-1,2-dihydroquinolin-7-yl)oxy)butyl)piperazin-1-ium-1-yl)methyl) phosphate] | 0 | 80 | 16
17 | COC(=O)[C@H](COP(=O)([O-])OC[N+]1(CCCCOc2ccc3ccc(=O)[nH]c3c2)CCN(c2cccc3sccc23)CC1)NC(=O)OC(C)(C)C [EX 83, (S)-(4-(benzo[b]thiophen-4-yl)-1-(4-((2-oxo-1,2-dihydroquinolin-7-yl)oxy)butyl)piperazin-1-ium-1-yl)methyl (2-(tert-butoxycarbonyl)amino)-3-methoxy-3-oxopropyl) phosphate] | 0 | 70 | -5
18 | O=C(OCOP(=O)([O-])OC[N+]1(CCCCOc2ccc3ccc(=O)[nH]c3c2)CCN(c2cccc3sccc23)CC1)OCC1CCOCC1 [EX 142, (4-(benzo[b]thiophen-4-yl)-1-(4-((2-oxo-1,2-dihydroquinolin-7-yl)oxy)butyl)piperazin-1-ium-1-yl)methyl (((((tetrahydro-2H-pyran-4-yl)methoxy)carbonyl)oxy)methyl) phosphate] | 0 | -70 | 8
